Biological target: T1, human TLR7 (Homo sapiens, UniProt Q9NYK1)
T1 construct: host or cells: HEK-Blue hTLR7 cells (HEK293-derived reporter line; that the line is stably transfected with the human TLR7 gene is own knowledge of the vendor's product)
T1 sequence (Q9NYK1 27-1049): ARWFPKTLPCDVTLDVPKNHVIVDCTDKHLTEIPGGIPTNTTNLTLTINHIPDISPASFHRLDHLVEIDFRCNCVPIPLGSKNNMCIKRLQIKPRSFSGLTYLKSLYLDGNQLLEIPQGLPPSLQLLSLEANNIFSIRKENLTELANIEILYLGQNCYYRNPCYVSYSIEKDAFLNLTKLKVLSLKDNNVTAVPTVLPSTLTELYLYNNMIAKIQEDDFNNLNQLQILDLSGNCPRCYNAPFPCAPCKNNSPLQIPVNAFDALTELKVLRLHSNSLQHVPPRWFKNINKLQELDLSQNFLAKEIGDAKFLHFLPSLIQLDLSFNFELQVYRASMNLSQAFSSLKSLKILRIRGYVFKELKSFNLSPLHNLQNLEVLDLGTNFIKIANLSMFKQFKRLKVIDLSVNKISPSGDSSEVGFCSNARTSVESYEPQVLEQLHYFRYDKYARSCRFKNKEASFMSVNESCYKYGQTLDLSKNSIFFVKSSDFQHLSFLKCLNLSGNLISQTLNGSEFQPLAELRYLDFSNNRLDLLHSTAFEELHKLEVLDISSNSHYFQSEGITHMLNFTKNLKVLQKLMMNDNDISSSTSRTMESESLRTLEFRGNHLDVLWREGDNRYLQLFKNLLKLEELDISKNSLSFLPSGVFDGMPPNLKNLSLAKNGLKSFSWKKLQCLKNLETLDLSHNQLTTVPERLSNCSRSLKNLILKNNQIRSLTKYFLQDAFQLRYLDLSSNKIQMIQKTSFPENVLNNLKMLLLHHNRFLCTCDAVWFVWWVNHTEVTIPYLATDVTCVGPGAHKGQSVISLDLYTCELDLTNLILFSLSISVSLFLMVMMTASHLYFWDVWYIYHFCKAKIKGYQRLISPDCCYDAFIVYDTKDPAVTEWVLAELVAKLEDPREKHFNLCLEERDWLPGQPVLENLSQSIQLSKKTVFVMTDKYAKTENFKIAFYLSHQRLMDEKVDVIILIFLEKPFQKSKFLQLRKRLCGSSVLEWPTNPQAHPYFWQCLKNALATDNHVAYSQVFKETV
Assay: Agonistic activity of compounds on HEK-Blue hTLR7 cells (QUANTI-Blue reporter, OD620)
Format: cell-based
Settings: for EC50 / Emax: HEK-Blue hTLR7 cells; for EC50: 20 h incubation; for Emax: OD620 at which the activation effect reached the maximum; for activation effect on human TLR7: summary in words
Description: • 1. HEK-Blue hTLR7 cells (Invivogen) were cultured in DMEM medium (Hyclone) containing 10% FBS heat-inactivated fetal bovine serum (Corning). On the day of detection, the cell state was observed under a microscope, the cells were collected and resuspended, and the cell concentration was adjusted after counting, 50 µL per well, the total amount of cells was 2×10^4, and the cells were inoculated in a 96-well plate. • 2. After the cells adhered to the wall overnight, 50 µL of the test compound at different concentrations was added into the well plate, so that the final concentrations were 100 µM, 33.3 µM, 11.11 µM, 3.70 µM, 1.23 µM, 0.41 µM, 0.14 µM, 0.05 µM, 0 µM, and the final concentration of DMSO was 1%. The compound was incubated with the cells in a 37°C, 5% CO2 incubator for 20 h. • 3. After the incubation, observation under microscope was performed to determine the maximum signal well, the states of the cells with the highest and lowest concentrations of the compound, and whether the compound will crystalize at high concentration. 10 µL of cell culture supernatant was taken and transferred to a new 96-well transparent plate, 90 µL of QUANTI-Blue (Invivogen) detection reagent was added to each well, and incubated at 37°C for 3 h, and OD620 was read with a multifunctional microplate reader (BMG LABTECH). • 4. EC50 was calculated by fitting with Graphpad Prism software log(agonist) vs. response - Variable slope, and Emax was the OD620 at which the activation effect of the test compound reached the maximum.

EC50 [µM]	Emax [OD620]	activation effect on human TLR7	SMILES
2.41	1.74	strong activation effect	COCCc1nc2c(N)nc3ccsc3c2n1CCCCN [Compound 4, 1-(4-aminobutyl)-2-(2-methoxyethyl)-1H-imidazo[4,5-d]thieno[3,2-b]pyridine-4-amine]
3.25	1.46	strong activation effect	CCOCc1nc2c(N)nc3ccsc3c2n1CCCCN [Compound 5, 1-(4-aminobutyl)-2-(2-ethoxymethyl)-1H-imidazo[4,5-d] thieno[3,2-b]pyridine-4-amine]
1.42	2.40	strong activation effect	CCCCc1nc2c(N)nc3cc(C)sc3c2n1CC1CCN(CCOCCOCCN)CC1 [Compound 15, 1-((1-(2-(2-(2-aminoethoxy)ethoxy)ethyl)piperidin-4-yl)methyl)-2-butyl-7-methyl-1H-imidazo[4,5-d]thieno[3,2-b]pyridine-4-amine]
1.69	2.18	strong activation effect	CCCCc1nc2c(N)nc3cc(C)sc3c2n1CC1CCN(CCOCCOCCOCCOCCOCCOCCOC)CC1 [Compound 16, 1-((1-(2,5,8,11,14,17,20-heptaoxadocosan-22-yl)piperidin-4-yl)methyl)-2-butyl-7-methyl-1H-imidazo[4,5-d]thieno[3,2-b]pyridine-4-amine]
1.16	2.23	strong activation effect	CCCCc1nc2c(N)nc3cc(C)sc3c2n1CC1CCN(C(=O)CCOCCOCCN)CC1 [Compound 17, 1-(4-((4-amino-2-butyl-7-methyl-1H-imidazo[4,5-d]thieno[3,2-b]pyridin-1-yl)methyl)piperidin-1-yl)-3-(2-(2-aminoethoxy)ethoxy)propan-1-one]
0.14	2.08	strong activation effect	CCCCc1nc2c(N)nc3ccsc3c2n1CC1CCNCC1 [Compound 25, 2-butyl-1-(piperidin-4-ylmethyl)-1H-imidazo[4,5-d]thieno[3,2-b] pyridine-4-amine]
0.05	1.78	strong activation effect	CCCCc1nc2c(N)nc3cc(C)sc3c2n1CC1CCOCC1 [Compound 26, 2-butyl-7-methyl-1-((tetrahydro-2H-pyran-4-yl)methyl)-1H-imidazo[4,5-d]thieno[3,2-b]pyridine-4-amine]
0.2	1.39	strong activation effect	CCCCc1nc2c(N)nc3cc(C)sc3c2n1CC1CCN(C)CC1 [Compound 28, 2-butyl-7-methyl-1-((1-methylpiperidin-4-yl)methyl)-1H-imidazo[4,5-d]thieno[3,2-b]pyridine-4-amine]
1.26	0.91	strong activation effect	CCCCc1nc2c(N)nc3cc(C4CCN(C)CC4)sc3c2n1C [Compound 32, 2-butyl-1-methyl-7-(1-methylpiperidin-4-yl)-1H-imidazo[4,5-d] thieno[3,2-b]pyridine-4-amine]
0.083	1.21	strong activation effect	CCCCc1nc2c(N)nc3cc(C4CCN(C)CC4)sc3c2n1CC1CCOCC1 [Compound 34, 2-butyl-7-(1-methylpiperidin-4-yl)-1-((tetrahydro-2H-pyran-4-yl)methyl)-1H-imidazo[4,5-d]thieno[3,2-b]pyridine-4-amine]
1.3	0.49	strong activation effect	CCCCc1nc2c(N)nc3cc(C4CCN(C)CC4)sc3c2n1CC1CCN(C)CC1 [Compound 38, 2-butyl-7-(1-methylpiperidin-4-yl)-1-((1-methylpiperidin-4-yl)methyl)-1H-imidazo[4,5-d]thieno[3,2-b]pyridine-4-amine]
0.58	1.83	strong activation effect	CCCCc1nc2c(N)nc3cc(C4CCOCC4)sc3c2n1CC1CCN(C)CC1 [Compound 40, 2-butyl-1-((1-methylpiperidin-4-yl)methyl)-7-(tetrahydro-2H-pyran-4-yl)-1H-imidazo[4,5-d]thieno[3,2-b]pyridine-4-amine]
5.05	0.84	strong activation effect	CCCCc1nc2c(N)nc3cc(C4CCNCC4)sc3c2n1CC1CCN(CCOC)CC1 [Compound 41, 2-butyl-7-(hexahydropyridin-4-yl)-1-{[1-(2-methoxyethyl)hexahydropyridin-4-yl]methyl}thieno[3,2-b]imidazo[4,5-d]pyridine-4-amine]
1.43	0.65	strong activation effect	CCCCc1nc2c(N)nc3cc(C4CCN(C)CC4)sc3c2n1CC1CCN(CCOC)CC1 [Compound 42, 2-butyl-1-{[1-(2-methoxyethyl)hexahydropyridin-4-yl]methyl}-7-(1-methylhexahydropyridin-4-yl)thieno[3,2-b]imidazo[4,5-d]pyridine-4-amine]
1.48	1.44	strong activation effect	COCCc1nc2c(N)nc3ccsc3c2n1CC1CCNCC1 [Compound 55, 1-(hexahydropyridin-4-ylmethyl)-2-(2-methoxyethyl) thieno[3,2-b]imidazo[4,5-d]pyridine-4-amine]
0.46	1.41	strong activation effect	COCCc1nc2c(N)nc3ccsc3c2n1CC1CCN(C)CC1 [Compound 56, 2-(2-methoxyethyl)-1-[(1-methylhexahydropyridin-4-yl)methyl] thieno[3,2-b]imidazo[4,5-d]pyridine-4-amine]

SMILES	EC50 [µM]	Emax [OD620]	activation effect on human TLR7
CCCCc1nc2c(N)nc3cc(C4=CCN(C)CC4)sc3c2[nH]1 [Compound 8, 2-butyl-7-(1-methyl-1,2,3,6-tetrahydropyridin-4-yl)-1H-imidazo [4,5-d]thieno[3,2-b]pyridine-4-amine]	2.5	0.56	strong activation effect
CCCCc1nc2c(N)nc3cc(C4CCN(C(C)=O)CC4)sc3c2n1CC1CCOCC1 [Compound 59, 1-{4-[4-amino-2-butyl-1-(3,4,5,6-tetrahydro-2H-pyran-4-ylmethyl)thieno[3,2-b]imidazo[4,5-d]pyridin-7-yl]hexahydropyridin-1-yl}ethyl-1-one]	0.04	1.45	strong activation effect

Source: EP4458830A1, “TRICYCLIC COMPOUND, METHOD FOR PREPARING SAME, AND USE THEREOF” (Sichuan Kelun-Biotech Biopharmaceutical Co., Ltd., priority 2021, dated 2023)
